Literature values in patent publication US8101207B2, “Composition containing medicine extremely slightly soluble in water and method for preparation thereof” (Kowa Co., Ltd., priority 2003, dated 2012).

Legend:
interleukin-1β = conditions: known from Japanese Patent Application Laid-Open (kokai) No. 12-198776

solubility in water: very low solubility
SMILES: CSc1ccc(-c2nn(Cc3ccccc3)c(=O)cc2-c2ccc(Cl)cc2)cc1 [Compound A, 2-benzyl-5-(4-chlorophenyl)-6-[4-(methylthio)phenyl]-2H-pyridazin-3-one]
effect of inhibiting production of interleukin-1β (interleukin-1β): excellent effect
